pIC50: −log10 of the molar value. Read-outs that look alike come from different tables or passages of the source.
Key:
[1] = Systemic side effects: reduction in thymus weight on chronic administration to rats; type: in vivo, Sprague-Dawley rats
Description: Systemic side effects may be assessed by reduction in thymus weight on chronic administration to rats. Male Sprague-Dawley rats (approximately 250 g) are treated once daily for 4 days with the test compound administered at a dose of 1 mg/kg either orally as a hydroxypropyl cellulose suspension or intratracheally under isoflurane anaesthesia as a dry powder lactose blend. On day 5 the rats are sacrificed, autopsy is performed and the weight of the thymus is determined.

[2] = test system: TNF-alpha synthesis and release from the human macrophage cell line U937; test: Inhibition of TNF-alpha synthesis and release from the human macrophage cell line U937; type: cell-based
From the text: Accordingly, the invention also provides a compound of formula I for use as a pharmaceutical. […] Methods (1997) 202:49-57; Renzi et al, Am. Rev. Respir. Dis. (1993) 148:932-939; Tsuyuki et al., J. Clin. Invest. (1995) 96:2924-2931; and Cemadas et al (1999) Am. J. Respir. Cell Mol. Biol. 20:1-8.

lung eosinophilia = test: Inhibition of lung eosinophilia in ovalbumin-sensitised Brown Norway rats; type: in vivo; details: 3 mg/kg intratracheally as dry powder lactose blend, 24 h before ovalbumin aerosol; lung lavage 24 h after challenge
Description: In vivo anti-inflammatory activity may be assessed by inhibition of lung eosinophilia in rats using a modification of the method of Szarka et al op cit. Male Brown Norway rats (approximately 200 g) are sensitised on day 1 with an intraperitonial injection of 0.5 ml of a mixture of ovalbumin (0.02 mg/ml) and aluminium hydroxide (20 mg/ml), followed by Acellulare pertussis adsorbat vaccine (0.2 ml of a 1:4 dilution with 0.9% saline). The procedure is repeated on day 15 and day 21. […] The lungs are removed and after lavage with Hank's solution (balanced salt solution, 100 ml; EDTA 100 mM, 100 ml; HPES 1M, 10 ml, water 1000 ml), eosinophil numbers in the recovered solution are quantified directly using a Corbas Helios 5Diff apparatus (Hoffman-LaRoche).

[3] = Homo sapiens, U-937, read-out: IC50 inhibition of TNF-alpha synthesis and release

Structure (SMILES) | reduction in thymus weight compared to vehicle control when dosed intratracheally ([1]; 1 mg/kg intratracheally once daily for 4 days, dry powder lactose blend) [%] | reduction in thymus weight compared to vehicle control when dosed orally ([1]; 1 mg/kg orally once daily for 4 days, hydroxypropyl cellulose suspension) [%] | pIC50 ([2]; U937 human macrophage cell line, read-out: IC50 inhibition of TNF-alpha synthesis and release) | reduction in eosinophil count compared to vehicle control (lung eosinophilia) [%] | pIC50 [2, 3]
COC(=O)[C@@]1(OC(=O)c2cnc(C)cn2)[C@H](C)CC2C3C[C@H](F)C4=CC(=O)C=C[C@]4(C)[C@@]3(Cl)[C@@H](O)C[C@@]21C (some centres unmarked) [Example 99] | 70 | 0 | 9.97 | 48 | 
COC(=O)[C@@]1(OC(=O)C2CC2)[C@@H](C)CC2C3C[C@H](F)C4=CC(=O)C=C[C@]4(C)[C@@]3(Cl)[C@@H](O)C[C@@]21C (stereo partly drawn) [Example 34, (6S,9R,10S,11S,13S,16S,17R)-9-chloro-17-cyclopropanecarbonyloxy-6-fluoro-11-hydroxy-10,13,16-trimethyl-3-oxo-6,7,8,9,10,11,12,13,14,15,16,17-dodecahydro-3H-cyclopenta[a]phenanthrene-17-carboxylic acid methyl ester] |  |  |  | 90 | 10.00
COC(=O)[C@@]1(OC(=O)c2sccc2C)[C@H](C)CC2C3C[C@H](F)C4=CC(=O)C=C[C@]4(C)[C@@]3(Cl)[C@@H](O)C[C@@]21C (stereo partly drawn) [Example 26, 3-methylthiophene-2-carboxylic acid (6S,9R,10S,11S,13S,16R,17R)-9-chloro-6-fluoro-11-hydroxy-17-methoxycarbonyl-10,13,16-trimethyl-3-oxo-6,7,8,9,10,11,12,13,14,15,16,17-dodecahydro-3H-cyclopenta[a]phenanthren-17-yl ester] |  |  |  | 63 | 10.62

Source: patent US6921757B2, “Organic compounds” (Novartis AG, priority 2000, dated 2005)
